Laboratory results taken from PMC13223435, “Synthesis and Antiproliferative Activity against Melanoma Cells of New Heterocyclic Hybrids Based on Pyridine and Pyrimidine Scaffolds” (Current Medicinal Chemistry, 2025).

What was measured:
[1] = tested on: A375 cells; experiment: Live-cell imaging (time-lapse microscopy); type: cell-based
Description: For live-cell imaging, A375 cells were seeded into 96-well plates at a density of 2×10^3 cells per well and allowed to grow for 24 h before imaging. Next, the cell culture medium was carefully removed, and new medium containing 16b (at 2 µM and 10 µM) and 29 (at 5 µM and 10 µM) was added and the cell culture plate was placed in the imaging chamber of Agilent BioTek Lionheart FX automated microscope (Agilent Technologies, Inc., Santa Clara, CA, USA) equipped with a Plan Fluorite 20x/0.75 objective (Olympus, Nishi-Shinjuki, Tokyo, Japan), and a FLIR Blackfly BFLY-U3-23S6M camera (Teledyne FLIR, Wilsonville, OR, USA). The temperature in the imaging chamber was set to 37°C and CO2 level to 5%. The bright-field images were acquired every 5 minutes for 48 hours.

[2] = tested on: melanoma A375 cells; experiment: WST-1 antiproliferative assay; type: cell-based; conditions: Homo sapiens, A-375; for activity at 10 µM: 48 h of treatment, A375, read-out: Cell proliferation (% control); for IC50: 48 hours of treatment
Excerpt: (§1) The A375 malignant melanoma cell line (ECACC 88113005, Salisbury, UK) was procured from the European Collection of Authenticated Cell Cultures (ECACC). The primary culture of human dermal fibroblasts (HDF) was derived from skin according to the protocol approved by the Ethical Committee of Pomeranian Medical University in Szczecin (KB-0012/02/18). The detailed protocol of fibroblast isolation, authentication, and cell culture conditions was previously described. Both cell lines were cultivated in a humidified incubator under conditions of 5% CO2 and a temperature of 37°C, using Dulbecco’s modified Eagle’s medium (DMEM) with 4500 mg/L glucose (Sigma-Aldrich Merck Group, St. Louis, MO, USA) enriched with 10% heat-inactivated fetal bovine serum (FBS, EURx, Gdańsk, Poland), 2 mM L-glutamine (Sigma-Aldrich Merck Group, St. Louis, MO, USA), and penicillin-streptomycin solution (Sigma-Aldrich Merck Group, St. Louis, MO, USA). Regular assessments for the presence of mycoplasma were conducted using the MycoAlert® Mycoplasma Detection Kit (Lonza, Rockland, ME, USA).
(§2) The evaluation of the antiproliferative activity of the compounds was performed using the Cell Proliferation Reagent WST-1 assay (Roche, Germany). This assay relies on the reduction of tetrazolium salt to formazan, with the final amount of formazan proportional to the number of viable cells. In our study, A375 cells (2×10^3) and HDF (3×10^3) were initially seeded into 96-well plates and cultured in a humidified atmosphere of 5% CO2 at 37°C. 24 hours later, the culture medium was replaced with a medium containing the tested compounds for a 48-hour incubation period at specified final concentrations. […] For control purposes, cells without the tested compounds, which contained only the vehicle (DMSO), were used. Additionally, a blank sample consisting of tested compounds in a medium (without cells) was included. After the 48-hour incubation period, the WST-1 reagent was introduced and allowed to incubate with the cells for 30 minutes. The absorbance was subsequently measured at 450 nm with background correction at 620 nm using a microplate reader (Infinite 200 Pro, Tecan, Männedorf, Switzerland). Cell viability was calculated according to the following formula: [(Atest–Ablank)/ (Acontrol − Ablank)] × 100%. These measurements were conducted in triplicate for at least three independent experiments.
In the screening step, 10 µM solutions of all 33 compounds were tested on A375 cells. […] Selected compounds (2c, 18e, 16b, 29) were tested at concentrations of 0.1, 1, 10, 50, and 100 µM. The IC50 values were determined using an online calculator (AAT Bioquest, Inc., Quest Graph™ IC50 Calculator (v.1). Retrieved from https://www.aatbio.com/tools/IC50-calculator-v1, accessed on: 2022, December 12).

[3] = WST-1 assay on non-tumor cells (selectivity); type: cell-based, human; conditions: human, primary human dermal fibroblasts (HDF); at 500 µM
Excerpt: as §1, §2
(§3) For that purpose, non-tumor HDF cells were used and the concentrations of tested compounds were increased to 200 µM (0.4% DMSO) and 500 µM (1% DMSO). Appropriate controls were prepared for higher concentrations of DMSO.

[4] = tested on: human dermal fibroblasts (HDF); experiment: WST-1 assay on non-tumor cells (selectivity); type: cell-based
Excerpt: as §1, §2, §3

[5] = tested on: A375 cells; experiment: Annexin V-PE/7-AAD apoptosis assay (Muse); type: cell-based; conditions: 48 h, early and late apoptotic
Description: In this study, A375 cells were initially seeded into 24-well plates at a density of 1×10^4 cells per well. After 24 hours, the cell culture medium was carefully removed, and a new medium containing 16b and 29 at varying final concentrations (1, 5, and 10 µM) was added, followed by an additional 48-hour incubation. Cells in a medium containing 0.2% DMSO served as the control group. After the treatment period, cells were washed with phosphate-buffered saline (PBS), and both the cell medium and PBS wash were retained. The cells were then detached using trypsin and centrifuged. The resulting cell pellet was suspended in a fresh medium after discarding the supernatant. An equivalent volume of Muse Annexin V & Dead Cell Reagent (Luminex Corporation, Austin, TX, USA) was added and thoroughly mixed through repeated pipetting. The staining procedure was conducted for 20 minutes at room temperature in the absence of light. The Muse Cell Analyzer (Luminex Corporation, Austin, TX, USA) was utilized for analysis. This assay detects phosphatidylserine (PS) on apoptotic cell surfaces using annexin V-PE (phycoerythrin) binding. A 7-AAD (7-aminoactinomycin D) marker was used to assess cell membrane integrity. The dual staining approach enabled the identification of four distinct cell groups: viable (Annexin V-PE− and 7-AAD−), early apoptotic (Annexin V-PE+ and 7-AAD−), late apoptotic/dead (Annexin V-PE+ and 7-AAD+), and primarily nuclear debris (Annexin V-PE− and 7-AAD+). The findings were based on at least three separate experimental runs.

[6] = target: T1, tubulin (Sus scrofa, UniProt P02550+P02554); experiment: Cell free tubulin polymerization assay (fluorescence-based); type: biochemical
T1 construct: purchased Cytoskeleton, Denver, CO, USA
Description: The tubulin polymerization process was evaluated using a tubulin (>99% pure) and fluorescence-based tubulin polymerization kit (Cytoskeleton, Denver, CO, USA). The effects of compounds 16b and 29 (at final concentrations of 1, 10, 50, 100 µM) on tubulin polymerization were evaluated in cell-free conditions. Paclitaxel (PTX) and vinblastine (VBL) (3 µM) were used as references, and DMSO (0.2%) was used as the vehicle control. This assay tracks the process of tubulin polymerization through an increase in fluorescence resulting from the addition of a fluorescence reporter to microtubules as polymerization occurs. After incubating the tested compounds at 37°C for 1 minute, the icy tubulin reaction mixture (2 mg/mL tubulin, 1.0 mM GTP, 15% glycerol in buffer containing 80 mM PIPES, 2.0 mM MgCl2, 0.5 mM EGTA, pH 6.9, and 10 µM fluorescent reporter) was added to the samples, which were then mixed and monitored using a spectrophotometric microplate reader (Infinite 200 Pro, Tecan) at 1-minute intervals for 90 minutes at 37°C (excitation: 360 nm, emission: 450 nm). The software installed on the plate reader was used to compute the maximum slope (Vmax) of the growth phase, measured in RFU/min, as outlined in the manufacturer's instructions. Each polymerization curve's Vmax was then standardized against the control curve's Vmax. The IC50 values were determined using an online tool (AAT Bioquest, Inc., Quest Graph™ IC50 Calculator ((v.1). Retrieved from https://www.aatbio.com/tools/IC50-calculator-v1, accessed on: 2024, May 6).

T1 sequence (P02554 whole entry): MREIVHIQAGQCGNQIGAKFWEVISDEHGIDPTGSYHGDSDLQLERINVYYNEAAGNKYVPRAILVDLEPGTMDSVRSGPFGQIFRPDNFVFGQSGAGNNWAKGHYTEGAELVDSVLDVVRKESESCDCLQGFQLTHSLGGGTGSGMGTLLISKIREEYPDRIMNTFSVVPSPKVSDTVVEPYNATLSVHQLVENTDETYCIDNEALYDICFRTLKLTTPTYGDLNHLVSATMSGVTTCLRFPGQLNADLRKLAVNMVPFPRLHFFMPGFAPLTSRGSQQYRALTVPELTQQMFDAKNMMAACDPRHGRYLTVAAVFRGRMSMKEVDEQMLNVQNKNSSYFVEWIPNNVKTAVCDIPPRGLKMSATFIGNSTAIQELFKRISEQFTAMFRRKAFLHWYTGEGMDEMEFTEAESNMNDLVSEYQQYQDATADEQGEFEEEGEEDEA
T1 sequence (P02550 whole entry): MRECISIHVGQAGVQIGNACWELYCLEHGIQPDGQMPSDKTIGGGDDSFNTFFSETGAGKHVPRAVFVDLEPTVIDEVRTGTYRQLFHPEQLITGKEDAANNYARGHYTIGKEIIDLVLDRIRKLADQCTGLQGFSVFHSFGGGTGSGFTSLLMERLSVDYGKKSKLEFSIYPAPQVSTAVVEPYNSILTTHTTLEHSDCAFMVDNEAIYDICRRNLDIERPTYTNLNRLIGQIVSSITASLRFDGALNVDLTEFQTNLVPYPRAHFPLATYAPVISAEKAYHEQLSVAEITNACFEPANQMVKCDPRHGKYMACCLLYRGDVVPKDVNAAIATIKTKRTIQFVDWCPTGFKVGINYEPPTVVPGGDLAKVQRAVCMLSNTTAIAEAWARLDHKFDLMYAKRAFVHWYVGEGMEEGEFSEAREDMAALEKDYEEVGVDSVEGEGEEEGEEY

Compound | activity at 10 µM [2] | further results
COc1ccc(/C=C\c2cc(OC)c(OC)c(OC)c2)cc1O [CA-4, combretastatin-4, reference compound] | – | time-lapse observation of A375 cells ([1]; 1 µM, positive control): caused the formation of characteristic protrusions, indicating changes in the organization of the cytoskeleton leading to apoptosis with typical apoptotic bodies
COc1cc(-c2cnc(=S)[nH]c2)cc(OC)c1OC [Compound 1d] | 99.2 ± 10.8% | –
COc1ccc(C2=CNC(=S)N(Cc3ccccc3)C2C#Cc2ccccc2)cc1 (centres unmarked) [Compound 2a] | 100 ± 6.85% | –
COc1ccc(C2=CNC(=S)N(C)C2C#Cc2ccsc2)cc1 (centres unmarked) [Compound 2b] | 92.4 ± 2.51% | –
S=C1NC=C(c2ccccc2)C(C#Cc2ccsc2)N1Cc1ccccc1 (centres unmarked) [Compound 2c] | 44.8 ± 6.68% | IC50 [2]: 59.3 ± 9.62 µM
COc1ccc(C2=CNC(=S)N(C)C2C#Cc2ccccn2)cc1 (centres unmarked) [Compound 2d] | 93.3 ± 16.6% | –
COc1cc(C2=CNC(=S)NC2Cc2ccccc2)cc(OC)c1OC (centres unmarked) [Compound 2e] | 138 ± 19.5% | –
COc1cc(C2=CNC(=S)NC2c2cccs2)cc(OC)c1OC (centres unmarked) [Compound 2f] | 127 ± 9.99% | –
COc1ccc(C#Cc2ccsc2)cn1 [Compound 4b] | 111 ± 10.8% | –
O=c1ccc(C#Cc2cccs2)c[nH]1 [Compound 5a] | 114 ± 4.12% | –
O=c1ccc(C#Cc2ccsc2)c[nH]1 [Compound 5b] | 113 ± 9.77% | –
S=C1CC(Cc2ccccc2)C(C#Cc2cccs2)=CN1 (centres unmarked) [Compound 6a] | 101 ± 9.41% | –
S=C1CC(Cc2ccccc2)C(C#Cc2ccsc2)=CN1 (centres unmarked) [Compound 6b] | 101 ± 6.05% | –
O=c1ccc(-n2cc(-c3ccsc3)nn2)c[nH]1 [Compound 9a] | 114 ± 14.5% | –
O=C1CC(Cc2ccccc2)C(n2cc(-c3ccsc3)nn2)=CN1 (centres unmarked) [Compound 10a] | 98.8 ± 12.6% | –
O=C1CC(Cc2ccccc2)C(n2cc(-c3ccccc3)nn2)=CN1 (centres unmarked) [Compound 10b] | 96.1 ± 4.11% | –
O=c1ccc(-c2csc3ccccc23)c[nH]1 [Compound 12a] | 106 ± 6.52% | –

Compound | activity at 10 µM [2] | further results
O=c1ccc(-c2cccc3sccc23)c[nH]1 [Compound 12b] | 97.8 ± 6.41% | –
S=c1ccc(-c2csc3ccccc23)c[nH]1 [Compound 13a] | 100 ± 3.65% | –
S=c1ccc(-c2cccc3sccc23)c[nH]1 [Compound 13b] | 77.5 ± 13.1% | –
S=c1ccc(-c2cccs2)cn1Cc1ccc2c(c1)OCO2 [Compound 16a] | 99.1 ± 3.1% | –
S=C1CC=C(c2cccs2)C(Cc2ccccc2)N1CC1CC1 (centres unmarked) [Compound 17c] | 117 ± 2.07% | –
S=C1CC=C(c2ccco2)C(Cc2ccccc2)N1CC1CC1 (centres unmarked) [Compound 17d] | 98.7 ± 1.41% | –
S=C1CC(Cc2ccccc2)C(c2ccco2)=CN1 (centres unmarked) [Compound 18e] | 51.4 ± 18.5% | IC50 [2]: 10.1 ± 0.75 µM
O=C1CC(Cc2ccccc2)C(C(=O)N2CCOCC2)=CN1 (centres unmarked) [Compound 21] | 117 ± 13% | –
Cn1c(CC2C=CN(c3ccccc3)C(=O)C2)cc2ccccc21 (centres unmarked) [Compound 23a] | 67.6 ± 13.3% | –
Cn1c(CC2C=CN(c3ccccc3)C(=S)C2)cc2ccccc21 (centres unmarked) [Compound 23b] | 81.4 ± 14.9% | –
Cn1c(CC2C=CCC(=O)N2c2ccccc2)cc2ccccc21 (centres unmarked) [Compound 24a] | 107 ± 14.2% | –
O=C1CC(Cc2nc3ccccc3o2)C=CN1c1ccccc1 (centres unmarked) [Compound 25a] | 104 ± 1.5% | –
S=C1CC(Cc2nc3ccccc3o2)C=CN1c1ccccc1 (centres unmarked) [Compound 25b] | 88.9 ± 8.81% | –
CN1C=C(c2ccccc2)[C@@H](c2ccccc2)[C@H](C(=O)c2ccccc2)C1=S [Compound 29] | 24.7 ± 4.73% | IC50 [2]: 4.85 ± 1.67 µM; viability at 48 h, 500 µM [3]: 85.9 ± 7.47%; IC50 ([4]; Fibroblast, 48 hours of treatment, normal human dermal fibroblasts): > 500 µM; Selectivity index (SI) ([4]; IC50 normal cells (HDF)/IC50 cancer cell (A375)): > 100; percentage of annexin-positive cells ([5]; 5 µM): 8.28 ± 1.80%; percentage of annexin-positive cells ([5]; 10 µM): 21.38 ± 1.55%; time-lapse observation of A375 cells ([1]; 5 µM, 48 h): more normal cells in the field of view than in the case of the same concentration of 16b; IC50 ([6]; Vmax normalised to control, read-out: tubulin polymerization inhibition IC50): > 100 µM; effect on tubulin polymerization ([6]; all tested concentrations (1-100 µM)): not interacting with tubulin
CC(=O)O[C@H]1C(=O)[C@@]2(C)[C@H]([C@H](OC(=O)c3ccccc3)[C@]3(O)C[C@H](OC(=O)[C@H](O)[C@@H](NC(=O)c4ccccc4)c4ccccc4)C(C)=C1C3(C)C)[C@]1(OC(C)=O)CO[C@@H]1C[C@@H]2O [PTX, Paclitaxel, reference compound] | – | effect on tubulin polymerization ([6]; 3 µM): reduced the duration of the nucleation phase and increased the Vmax
CC[C@]1(O)C[C@@H]2CN(CCc3c([nH]c4ccccc34)[C@@](C(=O)OC)(c3cc4c(cc3OC)N(C)[C@H]3[C@@](O)(C(=O)OC)[C@H](OC(C)=O)[C@]5(CC)C=CCN6CC[C@]43[C@@H]65)C2)C1 [VBL, vinblastine, reference compound] | – | effect on tubulin polymerization ([6]; 3 µM): suppressed tubulin polymerization, resulting in decreased Vmax and reduced final polymer mass of protein
